According to patent publication US12478693B2, “Compositions and methods for detection of traumatic brain injury” (Amydis, Inc., priority 2018, dated 2025):
“Also recorded” adds a separate entry of the source.

How the values were obtained:
Assay type in all cases: binding
[1] = system: amyloid-beta (Aβ) deposits in human retinal tissue; assay: Ex vivo fluorescence staining of post-mortem human retina with ASF probe; settings: AD and cognitively normal patients, listed as ASF
Description: Post-mortem retinal tissue and brains of humans with confirmed or probable Alzheimer's disease (AD) were obtained and examined by staining amyloid-beta (A3) with a test amyloid sensitive fluorescent probe (ASF), Compound 1. This example was conducted to determine if the ASF could identify patients with amyloid burden in the brain through fluorescence inspection of retinas stained with the ASF.
While this example could observe these deposits in both AD (panels A-B) and cognitively normal patients (panels C-D), there is a qualitative correlation between the density of these deposits in the retina and the degree of amyloidosis in the brain (as estimated by immunohistochemistry (IHC) with anti-Aβ antibodies).
IHC staining of retinal cryosections provided further evidence for the existence of Aβ in retinal deposits with similar location, size, and morphology as the deposits found in retinal flat mounts stained with the ASF.

[2] = system: amyloid beta in retinal tissue; assay: Staining of retinal tissue of TBI blast mouse model; settings: for fluorescent labelling of retinal Aβ deposits: blast mouse model, 24 hours after injury; for fluorescent labelling of retinal tissue: non-injured (normal) mouse
Description: This example was conducted to determine whether the ASF Compound 1 could detect AR in the retina of a TBI mouse model after injury.
Retinal tissue of a blast mouse model 24 hours after injury and a non-injured mouse were stained with the ASF and co-stained with an […] (6E10).

Aβ deposits in retina = biological target: T1, Aβ deposits in retina (Mus musculus, UniProt P12023); assay: Ex vivo detection of retinal Aβ aggregation in CCI mouse model (Example 4)
T1 construct: denotes peptides of about 36 to 43 amino acids; from tissue; host or cells: mouse retina dissected 24 h after CCI
T1 sequence (P12023 672-713 limits assumed): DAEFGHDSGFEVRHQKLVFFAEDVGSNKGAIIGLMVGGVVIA
Description: Mice were subjected to a controlled cortical impact (CCI). The CCI model applies a controlled impact to the intact dura after a craniotomy and is a commonly used TBI animal model. Mice were anesthetized, the head was mounted in a stereotaxic frame, and a craniotomy was performed over the right side of the frontal cortex. Using a stereotaxic impactor, mice received an impact on the right side of the frontal cortex using a 3 m/s velocity, 1 mm depth, and 3 mm diameter piston. After injury, the incision was closed with staples, anesthesia was terminated, and the animal was placed in a heated cage to maintain normal core temperature.
Sham injury consisted of exposure to anesthesia, stereotaxic mounting, skin and fascia reflection, and closing of incision with staples. Mice were then euthanized 24 hours after injury and retinal tissue were dissected for further analysis.
Retina from mice were extracted and stained with Compound 1 along with a 6E10 antibody, a sequence specific antibody for Aβ.
Mice were subjected to a controlled cortical impact (CCI). The CCI model applies a controlled impact to the intact dura after a craniotomy and is a commonly used TBI animal model. Mice were anesthetized, the head was mounted in a stereotaxic frame, and a craniotomy was performed over the right side of the frontal cortex. […]

[3] = system: amyloid beta in brain tissue; assay: Staining of brain tissue of TBI blast mouse model
Text: Based on this evidence, this example further attempted to confirm that […] was also detected in the brain tissue of the same TBI blast mouse model. […] The evidence of Aβ in the brain tissue complements what was found in the retinal tissue of the same injured mouse. It also supports previous studies of the correlation between the brain and retina in the accumulation of Aβ.

[4] = system: aggregated proteins in retina; assay: Retina staining after controlled cortical impact (Example 3); settings: 3 month old C5BL/6 mice, 24 h after CCI
Text: 3 month old C5BL/6 mice were briefly anesthetized with isoflurane and placed in a stereotaxic frame. Mice were subjected to craniotomy over the right primary and secondary motor cortex and parietal-temporal cortex (+1 to −4 anterior-posterior from the bregma, 4 mm laterally from the sagittal suture). Half of the mice were not further injured to use as control specimen. For the remaining mice a 3 mm diameter piston was centered over the motor cortex approximately +0.5 to −2.5 mm from the bregma and 3 mm lateral to the sagittal suture. Using a stereotaxic impactor (Impact One, myNeuroLab.com), the piston was accelerated at a speed of 3 m/sec to an impact depth of 1 mm below the cortical surface. After 24 h, mice were euthanized and brain and eyes were collected. Retinas were extracted, stained with DAPI, Compound 1, and 6E10 antibody, and compared.
Retinas were mounted on slides and washed with phosphate-buffered saline (PBS) two times for five minutes each time. Retinas were exposed to 98% formic acid for one minute then washed two times with distilled water for five minutes each time. The retinas were then equilibrated in 1×PBS for 15 minutes. Retinas were exposed to 10% goat/donkey serum in 1× phosphate-buffered saline with Tween® 20 (PBST) for 1 h. Retinas were then incubated with […] in 10% goat serum in 1×PBST at 4° C. overnight. […]

## COCCOCCOCCNC(=O)/C(C#N)=C/c1ccc2cc(N3CCCCC3)ccc2c1 [Compound 1, (E)-2-cyano-N-(2-(2-(2-methoxyethoxy)ethoxy)ethyl)-3-(6-(piperidin-1l-yl)naphthalen-2-yl)acrylamide]
[1]
  fluorescent visualization / binding of amyloid deposits in flat mounted retina: dense deposits that were 5-10 μm in diameter could be fluorescently visualized; also recorded: capable of binding to amyloid deposits in ex vivo human retinal tissue
[2]
  fluorescent labelling of retinal Aβ deposits: fluoresces amyloid beta in retinal tissue of TBI blast mouse model; also recorded: has the ability to detect retinal amyloids present in a TBI mouse model
  fluorescent labelling of retinal tissue: No visible fluorescence in normal mouse
[2]; listed as ASF
  fluorescent labelling of retinal Aβ deposits: fluorescently labels these retinal deposits
  fluorescent labelling of retinal tissue: does not display any fluorescent enhancement
Aβ deposits in retina; mice that received a CCI, 24 hours after injury, retina ex vivo
  fluorescent labelling of retinal Aβ deposits: fluorescently labeled these deposits and co-localized with 6E10 immunoreactivity
Aβ deposits in retina; uninjured (sham) mouse
  fluorescence enhancement in retina: did not display any fluorescence enhancement
[3]; TBI blast mouse model
  fluorescent labelling of amyloid beta in brain tissue: fluoresces amyloid beta in brain tissue of TBI blast mouse model
[3]; normal mouse
  fluorescent labelling of brain tissue: No visible fluorescence in normal mouse
[4]
  detection of deposited aggregated proteins in retina: detected; also recorded: colocalized
